# Laboratory results: paper PMC10537604, “Development and Assessment of 1,5–Diarylpyrazole/Oxime Hybrids Targeting EGFR and JNK–2 as Antiproliferative Agents: A Comprehensive Study through Synthesis, Molecular Docking, and Evaluation” (Molecules, 2023)
# Tests used:
# [1] = tested on: Hela cell line; test: Cell cycle analysis, PI staining, flow cytometry; format: cell-based, human; conditions: for cell cycle arrest phase: Hela, PI staining
# Protocol: This analysis was applied to investigate the effects of tested compounds on cell cycle distribution and on cell-death associated DNA fragmentation. The Hela cell line was analyzed flow cytometrically after propidium iodide (PI) staining, following the treatment of compounds 8g and 8i.
# The supernatant was transferred to falcon tube for each plate and each well was washed twice with 3 mL PBS, Trypsin 1 mL was added, and plates were incubated for 3 to 5 min at 37 degrees, then 3 mL of the medium was added to separate cells, cells were centrifuged for 5 min, and supernatant was decanted. Then, it was washed again with 3 mL PBS, and 10 mL of medium was added. Cells were immediately fixed in ice cold 70% ethanol overnight at −20 °C. On the day of the analysis, cells were washed ×3 with PBS and re-suspended in propidium iodide (PI) for 15 min at room temperature, protected from light. Cell-cycle analysis was performed using flowcytometric analysis (BD FACS melody) and data obtained from cell cycle distribution was analyzed using FSC-W (Watson model) to estimate the percentage of cells in G1, S, and G2.
# [2] = tested on: Hela cells; test: Apoptosis assay, annexin V/PI flow cytometry; format: cell-based, human; conditions: concentration double the IC50, 24 h
# Text: For further investigation of the anticancer activity of compounds 8g and 8i, studies of apoptotic changes after treatment of Hela cells with these inhibitors were examined using fluorescent microscope and flowcytometry. Moreover, to discriminate between apoptosis and necrosis after the treatment of Hela cell with two inhibitors 8g and 8i at different concentrations, a fluorescent microscope was used to distinguish between apoptosis and necrosis based on their characteristic difference in morphology using annexin V and PI [52]. […] This was exposed in the cell membrane of the Hela cells after treatment with two inhibitors due to plasma membrane sprouting and chromatin concentration. The prolonged incubation of Hela cells with two inhibitors directed cells to necrosis, which was marked in red because of the PI staining of necrotic cells as a result of losing their dye-excluding ability owing to a loss of plasma membrane integrity and the dissolution of nuclear chromatin [53] (Figure S1).
# Then, 200 µL of medium was added to separate cells, cells were centrifuged for 5 min, and supernatant was decanted. Then, it was washed twice with 100 µL PBS and 200 µL of buffer, 5 µL of PI& Annexin, and 200 µL of PBS was added for the test compounds. For control, 400 µL of PBS was added. […]
# [3] = WST-8 cytotoxicity towards normal cell line PC12; format: cell-based, rat; conditions: rat, PC12 cells; WST-8 assay, six concentrations 1-100 μM; read-out: CC50 against PC12 cell line
# Protocol: The evaluation of normal cell viability is fundamental in analyzing the efficacy of target compounds and is often used in conjunction with cytotoxicity tests to help understand how target compound toxicity affects normal cell health. […] A 100 μL aliquot of cells (10,000 cells/mL) was added to a 96 well plate and incubated for 24 h at 37 °C in a humidified incubator containing 5% CO2 in the air. […] Then, a 10 μL WST-8 solution (mixture of WST-8 and 1-methoxy PMS) was added to each well and the incubation continued for 3 h. The visible absorbance at 450 nm and 630 nm as the reference wavelength of each well was quantified using an MTP-310 absorbance microplate reader. Daunorubicin was used as a positive control. The results of cytotoxicity were recorded as growth inhibition percentages and as IC50 values.
SMILES,percentage of Hela cells at G2 phase ([1]; 48 h) [%],cell cycle arrest phase [1],percentage of apoptotic Hela cells [2] [%],CC50 at 24 h [3] [µM],"percentage of Hela cells at G2 phase ([1]; IC50 concentration, 24 h) [%]","percentage of Hela cells at S phase ([1]; IC50 concentration, 24 h) [%]"
"COc1cc(/C(C)=N/O)ccc1OC(=O)c1cc(-c2ccc(C)cc2)n(-c2ccc(S(N)(=O)=O)cc2)n1 [Compound 8g, (E)–4–(1–(Hydroxyimino)ethyl)–2–methoxyphenyl 1–(4–sulfamoylphenyl)–5–p–tolyl–1H–pyrazole–3–carboxylate]",20.5,G2/M arrest,34.7,16.1,–,–
"COc1cc(/C(C)=N/O)ccc1OC(=O)c1cc(-c2ccc(Cl)cc2)n(-c2ccc(S(N)(=O)=O)cc2)n1 [Compound 8i, (E)–4–(1–(Hydroxyimino)ethyl)–2–methoxyphenyl 5–(4–chlorophenyl)–1–(4–sulfamoyl phenyl)–1H–pyrazole–3–carboxylate]",–,combined S phase and G2 phase arrest,17.3,> 100,18.2,59.4
